Experimental data taken from patent US8580814B2, “Methods of using (+)-1,4-dihydro-7-[(3S,4S)-3-methoxy-4-(methylamino)-1-pyrrolidinyl]-4- oxo-1-(2-thiazolyl)-1,8-naphthyridine-3-carboxylic acid for treatment of cancer” (priority 2006, dated 2013).

Assays:
[1] = Solubility in acidic compositions; assay type: physicochemical; settings: Acidic compositions (<pH 4)
Experimental: An illustrative example of a suitable composition comprises: 10 mg SNS-595 per mL of aqueous solution of 4.5% sorbitol that is adjusted to pH 2.5 with methanesulfonic acid. One protocol for making such a solution includes the following for making a 100 mg/10 mL presentation: 100 mg of SNS-595 and 450 mg D-sorbitol are added to distilled water; the volume is brought up to a volume of 10 mL; and the pH of the resulting solution is adjusted to 2.5 with methanesulfonic acid. The resulting composition is also suitable for lyophilization. The lyophilized form is then reconstituted with sterile water to the appropriate concentration prior to use.

[2] = Safety in patients with advanced or refractory acute leukemias; assay type: in vivo, human
Experimental: (§1) SNS-595 was administered to patients with advanced or refractory acute leukemias as a slow IV push. Diagnoses included AML (19 patients) and ALL (2 patients). All patients had disease refractory to or relapsed from prior therapy (median 3 prior regimens (range 1-6)). A total of 21 patients (9 female and 12 male; median age=64 yrs, range 21-80) were treated in five cohorts using two schedules. In the first schedule (A), a weekly dose of SNS-595 was administered for three weeks followed by 7 days off (qwk×3). In the second schedule (B), a dose of SNS-595 was administered twice a week for two weeks (biwk×2). The cycle duration, including days off, was 28 days for both schedules. […] Additional cycles were permitted if patients achieved stable disease or better. The starting dose was 18 mg/m^2 on schedule A and 9 mg/m^2 on schedule B, and dosage was escalated by cohort. Cohorts of 3-6 patients were accrued to doses using a modified Fibonacci sequence.

clinical = settings: human, in vivo; for AUC(0-inf) / half-life: both sexes
Experimental: SNS-595 was administered to patients with advanced or refractory acute leukemias as a slow IV push. Diagnoses included AML (19 patients) and ALL (2 patients). All patients had disease refractory to or relapsed from prior therapy (median 3 prior regimens (range 1-6)).
as §1, with “A” for “SNS-595 was administered to patients with advanced or refractory acute leukemias as a slow IV push. Diagnoses included AML (19 patients) and ALL (2 patients). All patients had disease refractory to or relapsed from prior therapy (median 3 prior regimens (range 1-6)). A”
Pharmacokinetic analyses for SNS-595 were performed on plasma samples collected during cycle 1.
Plasma SNS-595 concentrations were determined using a validated LC-MS/MS assay. Plasma exposures at the first two dose levels for each schedule increased linearly, resulting in AUCs of 4.3-17.8 ughr/mL for 9-27 mg/m^2 doses. […] Six patients distributed across all dosing groups shown in Table 15 experienced greater than 50% reductions in peripheral blasts following cycle 1.

In the case of CN[C@H]1CN(c2ccc3c(=O)c(C(=O)O)cn(-c4nccs4)c3n2)C[C@@H]1OC [SNS-595, (+)-1,4-dihydro-7-[(3S,4S)-3-methoxy-4-(methylamino)-1-pyrrolidinyl]-4-oxo-1-(2-thiazolyl)-1,8-naphthyridine-3-carboxylic acid], the solubility [1] is reported as “increased solubility”, the “Grade 4 neutropenic fever” value ([2]; acute leukemia patients) is reported as “only one patient” and the Non-dose limiting toxicities ([2]; acute leukemia patients) is reported as “nausea/vomiting, diarrhea, and mucositis”. The “SAE possibly related to study drug: Infection, CTCAE v3.0 Grade” value ([2]; biwk x2, 1 patient) was “Grade 3”, the “SAE possibly related to study drug: Neutropenic Fevers, CTCAE v3.0 Grade” value ([2]; biwk x2, 1 patient) was “Grade 4” and the “SAE possibly related to study drug: Infection with Neutropenia, CTCAE v3.0 Grade” value ([2]; qwk x3, 1 patient) was “Grade 3”. For the same molecule, the “SAE possibly related to study drug: Pneumonia with Neutropenia, CTCAE v3.0 Grade” value ([2]; qwk x3, 1 patient) was “Grade 3”, the “dose limiting toxicities (DLTs)” value ([2]; up to 13.5 mg/m^2 on the biwk×2 schedule) was “No dose limiting toxicities” and the “dose limiting toxicities (DLTs)” value ([2]; up to 27 mg/m^2 on the qwk×3 schedule) was “No dose limiting toxicities”. It also gave an AUC(0-inf) (clinical; 9 mg/m2) of 4300 ± 1300 ng·h/mL, an AUC(0-inf) (clinical; 13.5 mg/m2) of 5900 ± 2900 ng·h/mL and a half-life (clinical; 13.5 mg/m2) of 1260 ± 420 min. It also gave an AUC(0-inf) (clinical; 18 mg/m2) of 8000 ± 1400 ng·h/mL, an AUC(0-inf) (clinical; 27 mg/m2) of 17800 ± 5000 ng·h/mL and a half-life (clinical; 27 mg/m2) of 1320 ± 600 min. The “terminal half-lives, averaged” value (clinical; both) was 23 h, the “T ½” value (clinical; both, 9 mg/m2) was 24 ± 5 h and the Vssobs (clinical; both, 9 mg/m2) was 65 ± 2 L/m^2. The Vssobs (clinical; both, 13.5 mg/m2) was 61 ± 6 L/m^2, the “T ½” value (clinical; both, 18 mg/m2) was 24 ± 4 h and the Vssobs (clinical; both, 18 mg/m2) was 72 ± 21 L/m^2. The Vssobs (clinical; both, 27 mg/m2) was 47 ± 21 L/m^2, the “CL, averaged” value (clinical) was about 2 L/hr/m^2 and the “Vss, averaged” value (clinical) was 58 L/m^2.
